Measurements taken from patent US10820591B2, “Substituted sulfonyl amides for controlling animal pests” (Bayer Aktiengesellschaft, priority 2016, dated 2020).

The compounds below were run on Meloidogyne incognita (assay: Meloidogyne incognita test (sand, lettuce, gall formation)). Conditions: Meloidogyne incognita, 336 h, 4 ppm, after 14 days; read-out: nematicidal efficacy (formation of galls).
Type: in vivo
Procedure: Meloidogyne incognita Test [table] To produce a suitable active compound preparation, 1 part by weight of active compound is mixed with the stated amount of solvent and the concentrate is diluted to the desired concentration with water. Vessels are filled with sand, active compound solution, an egg/larvae suspension of the southern root-knot nematode (Meloidogyne incognita) and lettuce seeds. The lettuce seeds germinate and the plants develop. The galls develop on the roots. After 14 days, the nematicidal efficacy in % is determined by the formation of galls. 100% means that no galls were found; 0% means that the number of galls on the treated plants corresponds to the untreated control.
For `Cn1nc(C(=O)NS(=O)(=O)c2c(Cl)cccc2Cl)cc1-c1c(F)cccc1F` [I-145], the pest or weed control at 4 ppm was 90%. `O=C(NS(=O)(=O)c1c(Cl)cccc1Cl)c1cn(Cc2ccc(Cl)cc2)cn1` [I-149] was tested, and the pest or weed control at 4 ppm was 90%.

Same assay, conditions: Meloidogyne incognita, 336 h, 20 ppm, after 14 days; read-out: nematicidal efficacy (formation of galls)
`COc1ccc(Cl)c(S(=O)(=O)NC(=O)c2ncn(CC(F)(F)C(F)(F)F)c2Cl)c1` [I-098] showed a pest or weed control at 20 ppm of 90%. `O=C(NS(=O)(=O)c1c(Cl)cccc1Cl)c1ncn(CC(F)(F)C(F)(F)F)c1Cl` [I-099] was tested, and the pest or weed control at 20 ppm was 70%. Work on `COc1ccc(Cl)c(S(=O)(=O)NC(=O)c2ncn(C(C)CC(F)(F)F)c2Cl)c1` (stereo not drawn) [I-100] yielded a pest or weed control at 20 ppm of 90%. `CC(CC(F)(F)F)n1cnc(C(=O)NS(=O)(=O)c2c(Cl)cccc2Cl)c1Cl` (stereo not drawn) [I-101] gave a pest or weed control at 20 ppm of 100%. Compound `CC(CC(F)(F)F)n1cnc(C(=O)NS(=O)(=O)c2ccccc2C(F)(F)F)c1Cl` (stereo not drawn) [I-102] has a pest or weed control at 20 ppm of 100%. In the case of `COc1ccc(Cl)c(S(=O)(=O)NC(=O)c2ncn(C3CC3C(F)(F)F)c2Cl)c1` (stereo not drawn) [I-103], the pest or weed control at 20 ppm is reported as 100%. With `CC(C)Oc1ccc(Cl)c(S(=O)(=O)NC(=O)c2ncn(C3CC3C(F)(F)F)c2Cl)c1` (stereo not drawn) [I-104] the pest or weed control at 20 ppm was 100%. `O=C(NS(=O)(=O)c1cc(C(F)(F)F)ccc1Cl)c1ncn(C2CC2C(F)(F)F)c1Cl` (stereo not drawn) [I-105] gave a pest or weed control at 20 ppm of 90%. For `COc1ccc(Cl)c(S(=O)(=O)NC(=O)c2nc(Br)n(CCC(F)(F)F)c2Br)c1` [I-108], the pest or weed control at 20 ppm was 100%. Work on `COc1ccc(Cl)c(S(=O)(=O)NC(=O)c2nc(C)n(-c3cc(Cl)cc(Cl)c3)c2Br)c1` [I-109] yielded a pest or weed control at 20 ppm of 100%. With `COc1ccc(Cl)c(S(=O)(=O)NC(=O)c2nc(C)n(-c3cc(Cl)cc(Cl)c3)c2I)c1` [I-110] the pest or weed control at 20 ppm was 100%. `Cc1nc(C(=O)NS(=O)(=O)c2ccccc2Cl)c(Cl)n1-c1cc(Cl)cc(Cl)c1` [I-111] showed a pest or weed control at 20 ppm of 100%. In the case of `Cc1ccccc1S(=O)(=O)NC(=O)c1nc(C)n(-c2cc(Cl)cc(Cl)c2)c1Cl` [I-112], the pest or weed control at 20 ppm is reported as 100%. For `O=C(NS(=O)(=O)c1ccccc1Cl)c1nc(Cl)n(-c2cc(Cl)cc(Cl)c2)c1Cl` [I-114], the pest or weed control at 20 ppm was 100%. In the case of `Cc1ccccc1S(=O)(=O)NC(=O)c1nc(Cl)n(-c2cc(Cl)cc(Cl)c2)c1Cl` [I-115], the pest or weed control at 20 ppm is reported as 100%. `CC(C)S(=O)(=O)NC(=O)c1cn(C)c(Cc2ccccc2Cl)n1` [I-117] gave a pest or weed control at 20 ppm of 90%. Compound `Cn1cc(C(=O)NS(=O)(=O)c2ccccc2Cl)nc1Cc1cccc(Cl)c1` [I-119] has a pest or weed control at 20 ppm of 90%. In the case of `O=C(NS(=O)(=O)c1cc(Cl)ccc1Cl)c1nc(Cl)n(CCC(F)(F)F)c1Cl` [I-123], the pest or weed control at 20 ppm is reported as 90%. Compound `O=C(NS(=O)(=O)c1ccccc1Cl)c1nc(Cl)n(CCC(F)(F)F)c1Cl` [I-124] has a pest or weed control at 20 ppm of 100%. In the case of `COc1ccc(S(=O)(=O)NC(=O)c2nc(Cl)n(CCC(F)(F)F)c2Cl)cc1` [I-125], the pest or weed control at 20 ppm is reported as 100%. `Cn1nc(C(=O)NS(C)(=O)=O)cc1-c1cccc(Cl)n1` [I-126] was tested, and the pest or weed control at 20 ppm was 100%. `Cn1nc(C(=O)NS(C)(=O)=O)cc1-c1ncccc1Cl` [I-128] was tested, and the pest or weed control at 20 ppm was 70%. `COc1ccc(Cl)c(S(=O)(=O)NC(=O)c2cc(-c3cccc(Cl)c3)n(C)n2)c1` [I-129] showed a pest or weed control at 20 ppm of 90%. In the case of `COc1ccc(Cl)c(S(=O)(=O)NC(=O)c2cc(-c3ccccc3Cl)n(C)n2)c1` [I-130], the pest or weed control at 20 ppm is reported as 90%. In the case of `Cn1nc(C(=O)NS(=O)(=O)c2cc(Cl)ccc2Cl)cc1-c1ccc(Cl)cc1` [I-131], the pest or weed control at 20 ppm is reported as 90%. Work on `Cn1nc(C(=O)NS(=O)(=O)c2cc(Cl)ccc2Cl)cc1-c1cccc(Cl)c1` [I-132] yielded a pest or weed control at 20 ppm of 90%. `Cn1nc(C(=O)NS(=O)(=O)c2cc(Cl)ccc2Cl)cc1-c1ccccc1` [I-133] showed a pest or weed control at 20 ppm of 70%. `Cn1nc(C(=O)NS(=O)(=O)c2cc(Cl)ccc2Cl)cc1-c1cc(Cl)cc(Cl)c1` [I-134] showed a pest or weed control at 20 ppm of 100%. Work on `Cn1nc(C(=O)NS(=O)(=O)c2cc(Cl)ccc2Cl)cc1-c1cccc(C(F)(F)F)c1` [I-135] yielded a pest or weed control at 20 ppm of 90%. For `Cn1nc(C(=O)NS(=O)(=O)c2cc(Cl)ccc2Cl)cc1-c1ncc(C(F)(F)F)cc1Cl` [I-136], the pest or weed control at 20 ppm was 100%. For `COc1ccc(Cl)c(S(=O)(=O)NC(=O)c2cc(-c3cccc(C(F)(F)F)c3)n(C)n2)c1` [I-138], the pest or weed control at 20 ppm was 100%. Compound `COc1ccc(Cl)c(S(=O)(=O)NC(=O)c2cc(-c3ncc(C(F)(F)F)cc3Cl)n(C)n2)c1` [I-139] has a pest or weed control at 20 ppm of 100%. `Cn1nc(C(=O)NS(=O)(=O)c2cc(Cl)ccc2Cl)cc1-c1cc(F)cc(C(F)(F)F)c1` [I-140] showed a pest or weed control at 20 ppm of 100%. Compound `Cn1nc(C(=O)NS(=O)(=O)c2ccccc2Cl)cc1-c1c(F)cccc1F` [I-142] has a pest or weed control at 20 ppm of 100%. `Cn1nc(C(=O)NS(=O)(=O)c2cc(Cl)ccc2Cl)cc1-c1c(F)cccc1F` [I-143] gave a pest or weed control at 20 ppm of 90%. For `COc1ccc(Cl)c(S(=O)(=O)NC(=O)c2cc(-c3c(F)cccc3F)n(C)n2)c1` [I-144], the pest or weed control at 20 ppm was 90%. In the case of `Cn1nc(C(=O)NS(=O)(=O)c2c(Cl)cccc2Cl)cc1-c1c(F)cccc1F` [I-145], the pest or weed control at 20 ppm is reported as 70%. Compound `Cn1nc(C(=O)NS(=O)(=O)c2c(F)cccc2F)cc1-c1c(F)cccc1F` [I-146] has a pest or weed control at 20 ppm of 100%. Compound `O=C(NS(=O)(=O)c1ccc(Cl)cc1Cl)c1cn(Cc2ccc(Cl)cc2)cn1` [I-148] has a pest or weed control at 20 ppm of 100%. `O=C(NS(=O)(=O)c1ccc(Cl)cc1)c1cn(Cc2ccccc2)cn1` [I-150] was tested, and the pest or weed control at 20 ppm was 100%. With `O=C(NS(=O)(=O)c1ccccc1)c1cn(Cc2ccc(Cl)cc2)cn1` [I-151] the pest or weed control at 20 ppm was 100%. With `O=C(NS(=O)(=O)c1ccccc1)c1cn(Cc2ccccc2)cn1` [I-152] the pest or weed control at 20 ppm was 100%. `O=C(NS(=O)(=O)c1cc(Cl)ccc1Cl)c1cn(Cc2ccccc2)cn1` [I-153] was tested, and the pest or weed control at 20 ppm was 100%. Compound `O=C(NS(=O)(=O)c1cc(Cl)ccc1Cl)c1cn(Cc2ccc(Cl)cc2)cn1` [I-154] has a pest or weed control at 20 ppm of 90%. Compound `O=C(NS(=O)(=O)c1ccccc1)c1cn(Cc2ccccc2Cl)cn1` [I-155] has a pest or weed control at 20 ppm of 100%. With `O=C(NS(=O)(=O)c1c(Cl)cccc1Cl)c1cn(Cc2ccccc2Cl)cn1` [I-157] the pest or weed control at 20 ppm was 90%. `O=C(NS(=O)(=O)c1ccccc1Cl)c1cn(Cc2cccc(Cl)c2)cn1` [I-159] gave a pest or weed control at 20 ppm of 100%. Work on `O=C(NS(=O)(=O)c1c(Cl)cccc1Cl)c1cn(Cc2cccc(C(F)(F)F)c2)cn1` [I-161] yielded a pest or weed control at 20 ppm of 100%. In the case of `O=C(NS(=O)(=O)c1ccccc1Cl)c1cn(Cc2cccc(C(F)(F)F)c2)cn1` [I-162], the pest or weed control at 20 ppm is reported as 100%. In the case of `Cc1nc(C(=O)NS(=O)(=O)c2ccccc2Cl)cn1Cc1ccccc1Cl` [I-163], the pest or weed control at 20 ppm is reported as 90%. Work on `O=C(NS(=O)(=O)c1cccc(Cl)c1)c1cn(Cc2ccc(Cl)cc2)cn1` [I-164] yielded a pest or weed control at 20 ppm of 90%. Compound `O=C(NS(=O)(=O)c1ccccc1Cl)c1cn(Cc2cc(Cl)cc(Cl)c2)cn1` [I-165] has a pest or weed control at 20 ppm of 100%. Compound `O=C(NS(=O)(=O)c1c(Cl)cccc1Cl)c1cn(Cc2cc(Cl)cc(Cl)c2)cn1` [I-166] has a pest or weed control at 20 ppm of 100%. With `O=C(NS(=O)(=O)c1ccccc1)c1cn(Cc2cc(Cl)cc(Cl)c2)cn1` [I-167] the pest or weed control at 20 ppm was 90%. In the case of `Cc1nc(C(=O)NS(=O)(=O)c2ccccc2Cl)cn1Cc1cccc(Cl)c1` [I-168], the pest or weed control at 20 ppm is reported as 100%. Work on `Cc1nc(C(=O)NS(=O)(=O)c2c(Cl)cccc2Cl)cn1Cc1cccc(Cl)c1` [I-169] yielded a pest or weed control at 20 ppm of 90%. Compound `O=C(NS(=O)(=O)c1ccccc1Cl)c1cn(-c2cccc(Cl)c2)cn1` [I-174] has a pest or weed control at 20 ppm of 100%. For `O=C(NS(=O)(=O)c1c(Cl)cccc1Cl)c1cn(-c2cccc(Cl)c2)cn1` [I-175], the pest or weed control at 20 ppm was 100%. `O=C(NS(=O)(=O)c1ccccc1Cl)c1cn(-c2cccc(C(F)(F)F)c2)cn1` [I-176] gave a pest or weed control at 20 ppm of 100%. `O=C(NS(=O)(=O)c1c(Cl)cccc1Cl)c1cn(-c2cccc(C(F)(F)F)c2)cn1` [I-177] gave a pest or weed control at 20 ppm of 100%. Work on `COc1ccc(Cl)c(S(=O)(=O)NC(=O)c2cn(-c3cccc(C(F)(F)F)c3)cn2)c1` [I-178] yielded a pest or weed control at 20 ppm of 100%. `COc1ccc(Cl)c(S(=O)(=O)NC(=O)c2cn(-c3cccc(Cl)c3)cn2)c1` [I-179] was tested, and the pest or weed control at 20 ppm was 90%. For `O=C(NS(=O)(=O)c1ccccc1)c1cn(-c2cc(Cl)cc(Cl)c2)cn1` [I-180], the pest or weed control at 20 ppm was 100%. In the case of `O=C(NS(=O)(=O)c1ccccc1Cl)c1cn(-c2cc(Cl)cc(Cl)c2)cn1` [I-181], the pest or weed control at 20 ppm is reported as 100%. `O=C(NS(=O)(=O)c1ccc(Cl)cc1)c1cn(-c2cc(Cl)cc(Cl)c2)cn1` [I-182] gave a pest or weed control at 20 ppm of 90%. `O=C(NS(=O)(=O)c1ccccc1Cl)c1cn(-c2ccccc2Cl)cn1` [I-183] showed a pest or weed control at 20 ppm of 90%. With `O=C(NS(=O)(=O)c1c(Cl)cccc1Cl)c1cn(-c2ccccc2Cl)cn1` [I-184] the pest or weed control at 20 ppm was 100%. In the case of `O=C(NS(=O)(=O)c1ccccc1Cl)c1cn(-c2ccc(Cl)cc2)cn1` [I-185], the pest or weed control at 20 ppm is reported as 100%. In the case of `O=C(NS(=O)(=O)c1c(Cl)cccc1Cl)c1cn(-c2ccc(Cl)cc2)cn1` [I-186], the pest or weed control at 20 ppm is reported as 90%. In the case of `O=C(NS(=O)(=O)c1c(Cl)cccc1Cl)c1cn(-c2cc(Cl)cc(Cl)c2)cn1` [I-187], the pest or weed control at 20 ppm is reported as 100%. With `COc1ccc(Cl)c(S(=O)(=O)NC(=O)c2cn(-c3cc(Cl)cc(Cl)c3)cn2)c1` [I-188] the pest or weed control at 20 ppm was 100%. `O=C(NS(=O)(=O)c1ccc(Cl)cc1Cl)c1cn(-c2cc(Cl)cc(Cl)c2)cn1` [I-189] was tested, and the pest or weed control at 20 ppm was 90%. `COc1ccc(Cl)c(S(=O)(=O)NC(=O)c2cn(-c3ccc(Cl)cc3)cn2)c1` [I-190] gave a pest or weed control at 20 ppm of 100%. `O=C(NS(=O)(=O)c1ccccc1Cl)c1cn(-c2ccccc2)cn1` [I-191] showed a pest or weed control at 20 ppm of 100%. For `O=C(NS(=O)(=O)c1c(Cl)cccc1Cl)c1cn(-c2ccccc2)cn1` [I-192], the pest or weed control at 20 ppm was 100%. `O=C(NS(=O)(=O)c1ccccc1)c1cn(-c2ccc(Cl)c(Cl)c2)cn1` [I-193] showed a pest or weed control at 20 ppm of 100%.
